For data set [1], the system named is photothrombosis-induced stroke in mice. The data set can be described thus: mouse photothrombotic stroke model. It counts as in vivo. The method, then:
Photothrombosis-induced Stroke: Photothrombosis is performed as described in Zheng et al 2010 (PloS One 5 (12): e14401). In brief, Rose Bengal is a fluorescent dye that when injected into the vasculature and excited, generates singlet oxygen that damages the endothelial wall and induces a local thrombosis (clot). Using this technique, mice are given a 0.1 mL tail-vein injection of sterilized Rose Bengal (RB, Sigma, U.S.A.) in artificial cerebral spinal fluid (aCSF). The RB concentration is 20 mg/mL. A cortical region is centered in the imaging field and illuminated with a green laser (543 nm, 5 mW) using a 0.8-NA 40× water-immersion objective (Nikon, Tokyo). The clot formation is monitored in real time until the targeted vessel or downstream capillaries are firmly occluded. […]
Animals and Photothrombosis-induced Stroke: Stroke is performed as described in Zheng et al 2010 (PloS One 5 (12): e14401). […] Depth of anesthesia is monitored and regulated according to vital signs, pinch withdrawal and eye blinks. […] Vital signs including oxygen saturation, respiratory rate, and heart rate are continuously monitored by using the MouseOx system (STARR Life Sciences). […]
Post photothrombotic infarction evaluation. The size of cerebral infarcts is evaluated using 2,3,5-Triphenyltetrazolium chloride (TTC) staining as described in Zheng et al 2010 (PloS One 5 (12): e14401). […]

A short description of data set [2]: plasma protein binding (free fraction). The following applies: mouse. It counts as in vitro ADME. The source says: Example 3 of U.S. Pat. No. 9,789,131, which is incorporated herein by reference, describes assays for determining the plasma and brain free fraction of certain compounds such as I-1. Compounds described herein may be evaluated using such assays or similar variants thereof.

SMILES strings stand for the structures.

As to `CSc1nc(N)c2ncn([C@H]3C(O)C(O)[C@]4(CO)C[C@H]34)c2n1` (stereo in doubt) [Compound I-1], in data set [1] (mouse photothrombotic stroke and TBI models), the “efficacy in presence of the A3 antagonist MRS1523” value was “blocked”. In addition, the “efficacy in mouse photothrombotic stroke model” value in data set [1] (mouse, in vivo) is listed as “significant efficacy”. Further, the “free (unbound) fraction in plasma” value in data set [2] amounted to 0.74.

(Values after US20250177405A1, “METHODS OF TREATING NEUROLOGICAL AND CARDIOVASCULAR CONDITIONS” (ASTROCYTE PHARMACEUTICALS, INC., priority 2021, published 2025).)
